Literature values, collected in patent publication US20230037437A1, “FORMULATIONS FOR USE IN THE TREATMENT OF DIFFERENT TYPES OF ADDICTIONS AND DEPENDENCE ON ADDICTIVE SUBSTANCES” (UNIBIOLABS INTERNACIONAL S.A DE C.V, priority 2019, published 2023).

Legend:
IKr channel (hERG) = IKr channel (hERG) (Homo sapiens, UniProt Q12809)
serotonin transporter = serotonin transporter (Homo sapiens, UniProt P31645)
[1] = molecular target: dopamine transporter (DAT) (Homo sapiens, UniProt Q01959); conditions: relative to cocaine
cocaine abusers = conditions: patients taking magnesium versus placebo

Sequence of IKr channel (hERG) (Q12809 whole entry): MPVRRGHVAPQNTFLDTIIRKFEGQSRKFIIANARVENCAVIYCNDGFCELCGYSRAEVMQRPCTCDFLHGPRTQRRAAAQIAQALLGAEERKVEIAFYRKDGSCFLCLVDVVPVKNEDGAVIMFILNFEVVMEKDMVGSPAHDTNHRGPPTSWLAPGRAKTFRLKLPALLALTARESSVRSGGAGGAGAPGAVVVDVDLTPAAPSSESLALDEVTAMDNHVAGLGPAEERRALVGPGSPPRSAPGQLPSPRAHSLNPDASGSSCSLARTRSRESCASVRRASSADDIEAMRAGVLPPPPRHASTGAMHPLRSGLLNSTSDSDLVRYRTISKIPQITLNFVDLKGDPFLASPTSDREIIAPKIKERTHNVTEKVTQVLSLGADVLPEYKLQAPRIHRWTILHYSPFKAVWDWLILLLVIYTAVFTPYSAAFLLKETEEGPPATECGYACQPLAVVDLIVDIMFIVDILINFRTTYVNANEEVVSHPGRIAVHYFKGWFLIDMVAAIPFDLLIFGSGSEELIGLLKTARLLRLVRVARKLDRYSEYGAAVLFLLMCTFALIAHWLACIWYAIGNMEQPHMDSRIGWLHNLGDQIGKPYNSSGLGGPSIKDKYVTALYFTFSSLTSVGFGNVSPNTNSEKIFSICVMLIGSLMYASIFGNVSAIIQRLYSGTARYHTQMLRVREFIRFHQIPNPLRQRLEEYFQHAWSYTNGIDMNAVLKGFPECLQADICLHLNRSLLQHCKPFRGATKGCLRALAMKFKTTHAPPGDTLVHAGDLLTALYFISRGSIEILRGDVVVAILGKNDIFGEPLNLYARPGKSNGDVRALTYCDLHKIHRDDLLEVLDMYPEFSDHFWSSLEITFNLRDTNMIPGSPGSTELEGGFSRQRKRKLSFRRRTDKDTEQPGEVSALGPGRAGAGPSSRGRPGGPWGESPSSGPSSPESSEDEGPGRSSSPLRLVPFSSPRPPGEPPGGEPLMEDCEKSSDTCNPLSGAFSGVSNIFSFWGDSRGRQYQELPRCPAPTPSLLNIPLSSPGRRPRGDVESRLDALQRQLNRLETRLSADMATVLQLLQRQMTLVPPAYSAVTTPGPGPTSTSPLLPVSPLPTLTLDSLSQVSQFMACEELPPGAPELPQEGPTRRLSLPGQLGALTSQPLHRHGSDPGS
Sequence of serotonin transporter (P31645 whole entry): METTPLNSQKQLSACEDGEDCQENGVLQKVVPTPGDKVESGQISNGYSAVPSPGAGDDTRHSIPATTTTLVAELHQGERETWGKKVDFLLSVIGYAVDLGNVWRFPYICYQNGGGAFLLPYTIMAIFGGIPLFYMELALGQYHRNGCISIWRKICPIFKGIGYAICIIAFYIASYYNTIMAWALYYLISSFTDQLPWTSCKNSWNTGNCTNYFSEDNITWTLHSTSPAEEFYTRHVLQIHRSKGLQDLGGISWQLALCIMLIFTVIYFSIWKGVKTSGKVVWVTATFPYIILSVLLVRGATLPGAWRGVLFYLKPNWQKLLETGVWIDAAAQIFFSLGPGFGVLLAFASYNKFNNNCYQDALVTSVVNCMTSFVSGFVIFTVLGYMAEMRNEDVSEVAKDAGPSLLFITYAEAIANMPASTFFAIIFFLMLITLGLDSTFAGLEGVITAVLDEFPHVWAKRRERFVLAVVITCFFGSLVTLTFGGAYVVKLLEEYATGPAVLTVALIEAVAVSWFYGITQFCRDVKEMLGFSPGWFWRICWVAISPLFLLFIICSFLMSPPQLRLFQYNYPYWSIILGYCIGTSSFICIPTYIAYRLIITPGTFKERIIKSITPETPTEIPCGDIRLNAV
Sequence of dopamine transporter (DAT) (Q01959 whole entry, species assumed): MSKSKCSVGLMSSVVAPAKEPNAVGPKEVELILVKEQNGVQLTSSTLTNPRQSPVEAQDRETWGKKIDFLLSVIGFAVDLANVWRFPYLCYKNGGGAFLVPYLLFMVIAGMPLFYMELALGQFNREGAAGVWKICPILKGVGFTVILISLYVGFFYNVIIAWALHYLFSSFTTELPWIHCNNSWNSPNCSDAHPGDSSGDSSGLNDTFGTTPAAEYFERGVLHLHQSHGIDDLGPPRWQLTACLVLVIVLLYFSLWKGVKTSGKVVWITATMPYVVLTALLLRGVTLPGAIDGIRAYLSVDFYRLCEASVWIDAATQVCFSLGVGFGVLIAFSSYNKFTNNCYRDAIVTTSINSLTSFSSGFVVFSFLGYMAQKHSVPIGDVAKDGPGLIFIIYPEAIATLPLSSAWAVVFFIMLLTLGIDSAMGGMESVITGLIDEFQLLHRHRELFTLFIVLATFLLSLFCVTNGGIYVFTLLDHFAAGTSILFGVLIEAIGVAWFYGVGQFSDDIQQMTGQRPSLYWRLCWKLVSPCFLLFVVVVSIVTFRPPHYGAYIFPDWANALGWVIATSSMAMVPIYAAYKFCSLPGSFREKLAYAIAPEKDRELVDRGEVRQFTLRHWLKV

Row | SMILES | IKr channel (hERG) block (IKr channel (hERG)) | affinity to the serotonin transporter (serotonin transporter) | binding to the target site on the dopamine transporter (DAT), stronger than cocaine [1] | cocaine craving scores, lower than in patients taking placebo (cocaine abusers) [%]
1 | Fc1ccc(C(OCCN2CCN(CCCc3ccccc3)CC2)c2ccc(F)cc2)cc1 [GBR 12909, Vanoxerine] | potent IKr channel blocker | nanomolar affinity | approximately 50 times | 
2 | [Mg+2] [magnesium] |  |  |  | 78
